# Laboratory results reported in patent US20190183894A1, “METHOD OF TREATMENT OF DIABETIC FOOT ULCERS” (Malesil Research & Technology LLC, priority 2017, published 2019).
# Like-named read-outs stand apart in the source and are kept apart here.
# What was measured:
# [1] = tested on: diabetic patients with grade 2 and grade 3 ulcers (Wagner classification); assay type: in vivo, human
# Method: In order to assess the effect of sildenafil maleate in treatment of diabetic foot ulcers, a 12-week open-label longitudinal study was conducted to compare the conventional treatment and the conventional treatment with simultaneous administration of sildenafil maleate.
# Diabetic patients with grade 2 and grade 3 ulcers were selected, according to Wagner classification and complying with the following inclusion and exclusion criteria:
# Inclusion Criteria: • Male or female patients with type-2 Diabetes Mellitus • Age younger than 80 years • Grade-2 or -3 foot or leg ulcer, of any origin according to Wagner classification, without compromising tendons nor bone, with a progression time not higher than 3 months. • Presence or absence of localized infection • Without peripheral vascular obstruction
# Exclusion Criteria • Type-1 Diabetes Mellitus patients • Grade-4 foot or leg ulcer according to Wagner classification or foot or knuckle necrosis • Peripheral vascular obstruction (ankle/arm index lower than 0.3) • Patients with creatinine higher than 1.2 mg/dL or blood urea nitrogen (BUN) higher than 50 • Transaminases 2 times above baseline • Microalbuminuria higher than 100
# Patients who meet inclusion and exclusion criteria, who voluntarily accept to participate in the study and further signing a written consent, are randomly assigned to two study groups:
# Group I: Conventional treatment
# Group II: Conventional treatment with simultaneous administration of sildenafil maleate.
# Patients are required to perform wound treatment and to register lesion progression.
# Visit 1 • Signature of written consent • Physical examination • Petition of clinical lab examinations: complete blood count, glycosilated hemoglobin (HbA1c), total colesterol, total lipids, triglycerides, HDL-colesterol, urea, creatinine, microalbumina, aspartate aminotransferase (TGO), alanine aminotransferase (TGP), reactive, ultra-sensitive C-protein (PCR-u), urine test, pre and postprandial glycemia, lesion culture when required. • Conventional healing of lesion • Arterial Doppler request of affected limb • Provide treatment with antibiotics when necessary
# Visit 2 (1 to 3 Days after Visit 1) • Interpretation of lab examination and Doppler study • Clinical/physical lesion examination • Patient inclusion/exclusion decision into the study • Random assignment of study groups • Registration of lesion characteristics (lesion photographs) • Assessment of metabolic control
# Visit 3 (1 to 3 Days after Visit 2) • Registration of lesion progression (lesion photographs) • Assessment of patient's metabolic control • Delivery of corresponding medicaments (antibiotics and sildenafil maleate as applicable) • Registration de adverse events
# Visit 4 Until Week 12 of Study (2 to 3 Times Per Week) • Registration of lesion progression (lesion photographs) • Registration de adverse events • Assessment of metabolic control
# Visit 5 (1 to 5 Days after Final Visit) • Registration of lesion progression (lesion photographs) • Registration of adverse events • Compliance with study medication intake • Education for future lesion prevention
# Wound treatment applied to all patients during each visit consists of cleaning with […] and distilled water, using sterile material; ointment MEBO® (Moist exposed Burn Treatment) was locally applied and dressing with sterile gauze when needed.
# Study medication was delivered in accordance with the previously established protocol; compliance with medication intake and presence of adverse events was verified. Medication was suspended in case of showing any adverse effect, even a mild event associated with study medicament (sildenafil maleate).
# [2] = cited from earlier work
substance,measurement,setting,value
sildenafil maleate,"effect on macro and microcirculation, granulation and healing of ulcers","[1]; 10-mg daily dose, oral, diabetic foot patients",improvement in macro and microcirculation
same,recovery of patients with previous amputations,[1]; Group II patients who had previous amputations,total recovery
same,blood flow and health status of lower limbs after end of treatment,[1]; Group II patients whose treatment concluded before the 12 weeks,kept an improvement in blood flow
same,patients who obtained a satisfactory result (lesion healing),[1]; Group II: conventional treatment with simultaneous sildenafil maleate,100%
same,adverse events,[1]; in vivo,did not experience adverse events
same,side effects,"[1]; in vivo, po",does not show side effects
same,lower healing time than group with conventional treatment,[1]; patients with grade 2 ulcers,20 days
same,Average healing time (Group II),[1]; ulcer grade 2 according to Wagner scale,47 days
same,Average healing time (Group II),[1]; ulcer grade 3 according to Wagner scale,81 days
same,Average healing time (Group II),[1]; ulcer grades 2 and 3 according to Wagner scale,55 days
same,decrease of recovery time,"[1]; vs conventional treatment, regardless of ulcer grade and lesion area",about 20 days
same,absorption compared with sildenafil citrate,[2]; in vivo,faster absorption
same,bioequivalence with sildenafil citrate,[2]; in vivo,bioequivalent
same,plasma protein binding,[2]; in vivo,mostly bound to plasma proteins
same,delay of maximum peak,[2]; ingested during a high fat content meal,60 min
same,time to maximum concentration,"[2]; oral administration, fasting subjects",60 min
same,distribution volume,[2]; stationary media (steady state),105 L
